According to ChEMBL document CHEMBL1201862, “PubChem BioAssay data set” (2004):
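A five-concentration, 48-hour dose response in 96-well plates underlies each endpoint, interpolated linearly between surrounding concentrations. The concentration for 50% growth inhibition is given as GI50.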 Active and inactive are the calls of the source. Rule as the data show it: active = GI50 up to about 1.1 µM and inactive = higher.

Key:
Assay in all cases: growth of human tumour cells (NCI), 48 h
786-0 = system: 786-0
A498 = system: A498
A549 = system: A549
ACHN = system: ACHN
CAKI-1 = system: CAKI-1
CCRF-CEM = system: CCRF-CEM
COLO 205 = system: COLO 205
DU-145 = system: DU-145
EKVX = system: EKVX
HCC 2998 = system: HCC 2998
HCT-116 = system: HCT-116
HCT-15 = system: HCT-15
HL-60 = system: HL-60
HOP-62 = system: HOP-62
HT-29 = system: HT-29
Hs-578T = system: Hs-578T
IGROV-1 = system: IGROV-1
K562 = system: K562
KM12 = system: KM12
M14 = system: M14
MCF7 = system: MCF7
MDA-MB-231 = system: MDA-MB-231
MDA-MB-435 = system: MDA-MB-435
MDA-N = system: MDA-N
MOLT-4 = system: MOLT-4
Malme-3M = system: Malme-3M
NCI-H226 = system: NCI-H226
NCI-H23 = system: NCI-H23
NCI-H460 = system: NCI-H460
NCI/ADR-RES = system: NCI/ADR-RES
OVCAR-4 = system: OVCAR-4
OVCAR-8 = system: OVCAR-8
PC-3 = system: PC-3
RPMI-8226 = system: RPMI-8226
SF-268 = system: SF-268
SF-295 = system: SF-295
SF-539 = system: SF-539
SK-MEL-28 = system: SK-MEL-28
SK-MEL-2 = system: SK-MEL-2
SK-MEL-5 = system: SK-MEL-5
SK-OV-3 = system: SK-OV-3
SN12C = system: SN12C
SNB-19 = system: SNB-19
SNB-75 = system: SNB-75
SR = system: SR
SW-620 = system: SW-620
T47D = system: T47D
TK-10 = system: TK-10
U-251 = system: U-251
UACC-257 = system: UACC-257
UACC-62 = system: UACC-62
UO-31 = system: UO-31
HOP-92 = system: HOP-92
LOX IMVI = system: LOX IMVI
NCI-H522 = system: NCI-H522
OVCAR-3 = system: OVCAR-3
OVCAR-5 = system: OVCAR-5
RXF 393 = system: RXF 393

## O=C(/C(=C\C(=O)c1cccs1)c1ccsc1)c1ccc(Br)cc1
786-0
  GI50: > 100 µM (inactive)
A498
  GI50: > 100 µM (inactive)
A549
  GI50: > 100 µM (inactive)
ACHN
  GI50: > 100 µM (inactive)
CAKI-1
  GI50: > 100 µM (inactive)
CCRF-CEM
  GI50: > 100 µM (inactive)
COLO 205
  GI50: > 100 µM (inactive)
DU-145
  GI50: > 100 µM (inactive)
EKVX
  GI50: 92.5 µM (inactive)
HCC 2998
  GI50: > 100 µM (inactive)
HCT-116
  GI50: > 100 µM (inactive)
HCT-15
  GI50: > 100 µM
HL-60
  GI50: > 100 µM (inactive)
HOP-62
  GI50: > 100 µM (inactive)
HT-29
  GI50: 80 µM (inactive)
Hs-578T
  GI50: > 100 µM (inactive)
IGROV-1
  GI50: > 100 µM (inactive)
K562
  GI50: > 100 µM (inactive)
KM12
  GI50: > 100 µM (inactive)
M14
  GI50: > 100 µM (inactive)
MCF7
  GI50: > 100 µM (inactive)
MDA-MB-231
  GI50: > 100 µM (inactive)
MDA-MB-435
  GI50: > 100 µM (inactive)
MDA-N
  GI50: > 100 µM (inactive)
MOLT-4
  GI50: > 100 µM (inactive)
Malme-3M
  GI50: 60.1 µM (inactive)
NCI-H226
  GI50: > 100 µM (inactive)
NCI-H23
  GI50: 80.2 µM (inactive)
NCI-H460
  GI50: > 100 µM (inactive)
NCI/ADR-RES
  GI50: 88.5 µM (inactive)
OVCAR-4
  GI50: > 10 µM (inactive)
OVCAR-8
  GI50: > 100 µM (inactive)
PC-3
  GI50: > 100 µM (inactive)
RPMI-8226
  GI50: 71.1 µM (inactive)
SF-268
  GI50: > 100 µM (inactive)
SF-295
  GI50: > 100 µM (inactive)
SF-539
  GI50: > 100 µM (inactive)
SK-MEL-28
  GI50: > 100 µM (inactive)
SK-MEL-2
  GI50: > 100 µM (inactive)
SK-MEL-5
  GI50: > 100 µM (inactive)
SK-OV-3
  GI50: > 100 µM (inactive)
SN12C
  GI50: > 100 µM (inactive)
SNB-19
  GI50: > 100 µM (inactive)
SNB-75
  GI50: > 100 µM (inactive)
SR
  GI50: > 100 µM (inactive)
SW-620
  GI50: > 100 µM (inactive)
T47D
  GI50: 18.6 µM (inactive)
TK-10
  GI50: > 100 µM (inactive)
U-251
  GI50: > 100 µM (inactive)
UACC-257
  GI50: 42.8 µM (inactive)
UACC-62
  GI50: > 100 µM (inactive)
UO-31
  GI50: > 100 µM (inactive)

## CC1=NN(c2nc(N)nc(/C(C#N)=C\c3csc([N+](=O)[O-])c3)n2)C(C)(C)C1
786-0
  GI50: 17.6 µM (inactive)
A498
  GI50: > 100 µM (inactive)
ACHN
  GI50: 35 µM (inactive)
CAKI-1
  GI50: 44.5 µM (inactive)
CCRF-CEM
  GI50: 2.23 µM (inactive)
DU-145
  GI50: 33.4 µM (inactive)
EKVX
  GI50: 30.2 µM (inactive)
HCC 2998
  GI50: 31.7 µM (inactive)
HCT-116
  GI50: 47.4 µM (inactive)
HCT-15
  GI50: 81.3 µM
HL-60
  GI50: 5.22 µM (inactive)
HOP-62
  GI50: 26.6 µM (inactive)
HOP-92
  GI50: 54.7 µM (inactive)
HT-29
  GI50: 37.3 µM (inactive)
Hs-578T
  GI50: 22.5 µM (inactive)
IGROV-1
  GI50: 49.3 µM (inactive)
K562
  GI50: 39.4 µM (inactive)
KM12
  GI50: 57.9 µM (inactive)
LOX IMVI
  GI50: 71.3 µM (inactive)
M14
  GI50: > 100 µM (inactive)
MCF7
  GI50: 35.6 µM (inactive)
MDA-MB-231
  GI50: 26.9 µM (inactive)
MDA-MB-435
  GI50: 39.7 µM (inactive)
MDA-N
  GI50: 27.7 µM (inactive)
MOLT-4
  GI50: > 100 µM (inactive)
NCI-H226
  GI50: 25.8 µM (inactive)
NCI-H23
  GI50: 32.1 µM (inactive)
NCI-H460
  GI50: 32.7 µM (inactive)
NCI-H522
  GI50: 21.3 µM (inactive)
NCI/ADR-RES
  GI50: 27 µM (inactive)
OVCAR-3
  GI50: 26.4 µM (inactive)
OVCAR-4
  GI50: 21.9 µM (inactive)
OVCAR-5
  GI50: 34.7 µM (inactive)
OVCAR-8
  GI50: 25.1 µM (inactive)
PC-3
  GI50: 20.6 µM (inactive)
RPMI-8226
  GI50: 35.6 µM (inactive)
RXF 393
  GI50: 20.6 µM (inactive)
SF-268
  GI50: 21.8 µM (inactive)
SF-295
  GI50: 45.5 µM (inactive)
SF-539
  GI50: 27.2 µM (inactive)
SK-MEL-28
  GI50: 59 µM (inactive)
SK-MEL-2
  GI50: 28.9 µM (inactive)
SK-MEL-5
  GI50: 30.5 µM (inactive)
SK-OV-3
  GI50: 42.2 µM (inactive)
SR
  GI50: 51.1 µM (inactive)
SW-620
  GI50: 68.7 µM (inactive)
T47D
  GI50: 23.7 µM (inactive)
TK-10
  GI50: 34.2 µM (inactive)
U-251
  GI50: 19.3 µM (inactive)
UACC-257
  GI50: 45.7 µM (inactive)
UO-31
  GI50: 37.4 µM (inactive)

## N#Cc1c(N)nc(Nc2cccc3ccccc23)c(C#N)c1C#N
A498
  GI50: 3.5 µM (inactive)
A549
  GI50: 5.71 µM (inactive)
ACHN
  GI50: 4.78 µM (inactive)
CAKI-1
  GI50: 6.25 µM (inactive)
CCRF-CEM
  GI50: 2.32 µM (inactive)
COLO 205
  GI50: > 10 µM (inactive)
DU-145
  GI50: > 10 µM (inactive)
EKVX
  GI50: > 10 µM (inactive)
HCC 2998
  GI50: 8.43 µM (inactive)
HCT-116
  GI50: 2.54 µM (inactive)
HCT-15
  GI50: 4.17 µM
HL-60
  GI50: 1.88 µM (inactive)
HOP-62
  GI50: 4.89 µM (inactive)
HT-29
  GI50: 6.11 µM (inactive)
Hs-578T
  GI50: 2.43 µM (inactive)
IGROV-1
  GI50: > 10 µM (inactive)
K562
  GI50: 2.58 µM (inactive)
KM12
  GI50: 7.53 µM (inactive)
LOX IMVI
  GI50: 2.53 µM (inactive)
M14
  GI50: 6.61 µM (inactive)
MCF7
  GI50: 2.79 µM (inactive)
MDA-MB-231
  GI50: 3.73 µM (inactive)
MDA-MB-435
  GI50: 3.31 µM (inactive)
MDA-N
  GI50: 1.84 µM (inactive)
MOLT-4
  GI50: 3.03 µM (inactive)
Malme-3M
  GI50: > 10 µM (inactive)
NCI-H226
  GI50: > 10 µM (inactive)
NCI-H23
  GI50: 3.61 µM (inactive)
NCI-H460
  GI50: 2.97 µM (inactive)
NCI-H522
  GI50: 2.9 µM (inactive)
NCI/ADR-RES
  GI50: 2.71 µM (inactive)
OVCAR-3
  GI50: 2.3 µM (inactive)
OVCAR-4
  GI50: > 10 µM (inactive)
OVCAR-5
  GI50: > 10 µM (inactive)
OVCAR-8
  GI50: 5.25 µM (inactive)
PC-3
  GI50: 4.27 µM (inactive)
RPMI-8226
  GI50: 2.61 µM (inactive)
RXF 393
  GI50: > 10 µM (inactive)
SF-268
  GI50: 3.68 µM (inactive)
SF-295
  GI50: 3.4 µM (inactive)
SF-539
  GI50: 2.78 µM (inactive)
SK-MEL-28
  GI50: 3.75 µM (inactive)
SK-MEL-2
  GI50: > 10 µM (inactive)
SK-MEL-5
  GI50: 4.43 µM (inactive)
SK-OV-3
  GI50: 3.94 µM (inactive)
SN12C
  GI50: 3.42 µM (inactive)
SNB-19
  GI50: > 10 µM (inactive)
SNB-75
  GI50: 3.52 µM (inactive)
SR
  GI50: 3 µM (inactive)
SW-620
  GI50: 3.48 µM (inactive)
T47D
  GI50: 8.09 µM (inactive)
TK-10
  GI50: > 10 µM (inactive)
U-251
  GI50: 4.71 µM (inactive)
UACC-62
  GI50: 4.18 µM (inactive)
UO-31
  GI50: 3.82 µM (inactive)
